Laboratory results reported in patent US20250281460A1, “PEGYLATED BILIRUBIN FOR THE TREATMENT OF […], OBESITY, FATTY LIVER DISEASE, CARDIOVASCULAR DISEASES AND TYPE II DIABETES” (The University of Toledo, priority 2019, published 2025).
Entries after “also recorded” stand apart in the source; their conditions may differ.

Tests used:
[1] = tested on: 3T3-L1 cells; experiment: Real-time PCR of mitochondrial and lipid burning genes in 3T3-L1 cells; type: cell-based, mouse
Experimental: Whether bilirubin decreases adiposity by enhancing mitochondrial function was evaluated. It was previously shown that bilirubin reduces lipid accumulation in adipocytes. However, it remained to be determined if this occurs by activation of PPARα to reduce adiposity, selective actions on PPARγ, or is a dual PPAR agonist, which together may mediate its glucose- and lipid-lowering effects. First, to determine if bilirubin enhances genes for mitochondrial function, 3T3-L1 cells, a WAT-type murine pre-adipocyte cell line that differentiates to full adipocytes, were treated with increasing concentrations of biliverdin, which is more soluble and is rapidly produced to bilirubin, over the 9-day adipocytic differentiation protocol.
(§1) Total RNA was extracted from mouse tissues using the miRNeasy Mini Kit (Qiagen). Total RNA was read on a NanoDrop 2000 spectrophotometer (Thermo Fisher Scientific, Wilmington, DE) and cDNA was synthesized using High Capacity cDNA Reverse Transcription Kit (Applied Biosystems). PCR amplification of the cDNA was performed by quantitative real-time PCR using TrueAmp SYBR Green qPCR SuperMix (Advance Bioscience). The thermocycling protocol consisted of 3 min at 95° C., 48 cycles of 15 sec at 95° C., 30 sec at 60° C., and based on primer size 0 to 30 sec at 72° C. and finished with a melting curve ranging from 60-95° C. to allow distinction of specific products. Normalization was performed in separate reactions with primers to 36B4.

[2] = tested on: 3T3-L1-WAT adipocytes; experiment: SeaHorse oxygen consumption rate in fully differentiated 3T3-L1-WAT adipocytes; type: cell-based, mouse; settings: 50 μM biliverdin, 50 μM WY 14,463, 10 μM rosiglitazone
Experimental: To compare the effects of bilirubin on the activation of PPARα or PPARγ on mitochondrial function, a SeaHorse XFe96 Analyzer was used to measure oxygen consumption rate (OCR) in fully differentiated 3T3-L1-WAT adipocytes treated with 50 μM biliverdin, 50 μM WY 14,463 (PPARα agonist), or 10 μM rosiglitazone (PPARγ-agonist). […]. Rosiglitazone, but not biliverdin or WY 14,643, enhanced the coupling efficiency. None of the ligands affected non-mitochondrial respiration, basal respiration, or proton leak.
Cellular respiration was quantified using the Seahorse Extracellular Flux Analyzer XF-96 (Agilent Technologies, Cedar Creek, TX). The Seahorse XF Cell Mito Stress Test Kit (Agilent Technologies, Cat #103015-100) was used for analysis of cellular respiration. BAT or 3T3-L1 cells were seeded on a XF96 cell culture microplate (Agilent 101085-004) at 20,000 cells per well. Cells were then differentiated as previously described for 9 days. […] The oxygen consumption rate (OCR) and extracellular acidification rate (ECAR) were used to quantify the cellular energy phenotype of the cells. After treatment, cells were washed twice with Seahorse Bioscience Assay Media (XF Base media with 25 mM Glucose, 2 mM […], and 1 mM Sodium Pyruvate) then incubated with the buffer for 1 hour in a non-CO2 incubator. The Seahorse Cartridge ports were loaded with […] of assay media with […] FCCP, 10 μM Oligomycin, 5 μM Rotenone/Antimycin A in different ports an hour before assay. […] The raw data and graphs were supplied as an Excel File or Graphpad Prizm file.

[3] = biological target: T1, PPARα (Mus musculus, UniProt P23204)
T1 sequence (P23204 1-468): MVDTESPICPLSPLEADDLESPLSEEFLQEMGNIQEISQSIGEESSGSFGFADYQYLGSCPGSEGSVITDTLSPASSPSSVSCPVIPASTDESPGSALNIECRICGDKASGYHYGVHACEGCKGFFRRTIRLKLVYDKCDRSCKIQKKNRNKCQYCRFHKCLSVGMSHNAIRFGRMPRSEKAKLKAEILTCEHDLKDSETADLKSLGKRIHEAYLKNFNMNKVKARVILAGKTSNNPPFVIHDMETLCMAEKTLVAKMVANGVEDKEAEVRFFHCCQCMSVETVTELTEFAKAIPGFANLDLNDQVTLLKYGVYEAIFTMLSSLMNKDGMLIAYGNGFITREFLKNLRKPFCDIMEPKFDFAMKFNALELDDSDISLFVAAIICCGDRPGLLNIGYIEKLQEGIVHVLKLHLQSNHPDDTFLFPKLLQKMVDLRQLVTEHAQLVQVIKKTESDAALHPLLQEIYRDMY
Experimental: Cells were crosslinked with formaldehyde with a final concentration of 1% in media while shaking at room temperature for 10 min. The activity of the formaldehyde was quench with the addition of glycine while rocking for 5 min at room temperature. Cells were washed twice with 1×PBS, collected into a 15 ml conical tube and spun down at 3,000 rpm for 5 min. Pellets were rapidly frozen on dry ice ethanol mix and stored at −80° C. for a minimum of 1 hour or immediately resuspended in a series of lysis buffers (see table for ChIP buffer table) containing protease inhibitors for 5 min. Cells were sonicated for approximately 8 min per sample. The lysates were centrifuged for 10 min at 4° C. at 13,000 rpm. The lysates were pre-cleared in BSA/Salmon sperm blocked beads rotating for 2 hours at 4° C. […] Lysates were then incubated with Agarose A beads and rotated for 4 hours at 4° C. The samples were then washed with a ChIP washing buffer (see table for ChIP buffer table) 5 times. The protein was eluted in an Elution buffer at 65° C. for 30 min shaking every 2 min. The eluted samples were transferred to another tube and incubated at 65° C. overnight to reverse crosslinking. The samples were purified after 1-hour incubation with Proteinase K at 55° C. with a isopropanol/chloroform/ethanol mixture. DNA was quantified on a NanoDrop 2000 spectrophotometer (Thermo Fisher Scientific, Wilmington, DE). PCR amplification of the genomic DNA was performed by quantitative real-time PCR using TrueAmp SYBR Green qPCR SuperMix (Advance Bioscience). The thermocycling protocol consisted of 2 min at 50° C. and then 10 min at 95° C., 48 cycles of 30 sec at 95° C., 1 min at 65° C.

[4] = tested on: BAT cells; experiment: SeaHorse analysis in murine BAT cell line (wild-type); type: cell-based
[5] = tested on: BAT cells; experiment: Real-time PCR in differentiated BAT cells; type: cell-based, murine; settings: 50 μM biliverdin, 50 μM WY14,463, 10 μM rosiglitazone, 24 hrs
Experimental: as §1

C=CC1=C(C)/C(=C/C2=NC(=C\c3[nH]c(/C=C4\NC(=O)C(C)=C4C=C)c(C)c3CCC(=O)O)/C(CCC(=O)O)=C2C)NC1=O [biliverdin]
Ucp1 mRNA ([1]; 1 μM): significantly heightened | Cpt1 mRNA expression ([1]; 50 μM): significantly increased | Ucp1 mRNA expression ([1]; 50 μM): significantly increased | ATP production [2]: significantly elevated | mitochondrial OCR for maximum respiration [2]: significantly increased | PPARα occupancy at the 13K enhancer of the Ucp1 ([3]; 50 μM, 24 hours): significantly increased | PPARα occupancy at the −3306 to −3109 region of the Cpt1 promoter ([3]; 50 μM, 24 hours): significantly increased | occupancy of PPARα at 13K enhancer of the Ucp1 ([3]; BAT cells): increased | occupancy of PPARα at the Cpt1 promoter ([3]; BAT cells): increased | occupancy of PPARα at the enhancer region of the Adrb3 promoter ([3]; BAT cells): intensified | mitochondrial function ([4]; BAT cells): increasing | proton leak ([4]; BAT cells): stimulated | ATP production ([4]; WT BAT cells, 24 hours): increased; also recorded: stimulated | basal respiration (OCR) ([4]; WT BAT cells, 24 hours): increased | maximum respiration (OCR) ([4]; WT BAT cells, 24 hours): increased; also recorded: significantly higher | Adrb3 mRNA [5]: significant increase; also recorded: only significantly higher | Ucp1 mRNA [5]: significant increase
